# Data reported in patent US8211662B2, “Nitroreductase enzymatic substrates” (Biomerieux, priority 2007, dated 2012).
# Tests used:
# [1] = tested on: Candida glabrata NCPF 3943; assay: Nitroreductase detection on Columbia agar, colonies read under UV; type: cell-based; design: key to Intensity of fluorescence, Candida glabrata NCPF3943 / F: fluorescence (intensity), Candida glabrata NCPF 3943 / Intensity of the fluorescence, Candida glabrata NCPF 3943: − = no fluorescence detected; +/− = weak fluorescence; + = medium fluorescence; ++ = strong fluorescence; details: 100 mg/l in Columbia agar, 24 h 37° C., UV 360-365 nm
# Protocol: (§1) A mass of 40 mg of each substrate was dissolved in 4 ml of dimethylformamide (DMF). This solution was entirely taken up in 400 ml of Columbia agar autoclaved beforehand and kept molten at 50° C. The final concentration for each substrate was 100 mg/l.
# (§2) Each of the media was distributed into Petri dishes 90 mm in diameter, in a proportion of 20 ml per dish.
# (§3) 18 microorganism strains derived from collections and belonging to various species of bacteria and of yeasts were inoculated onto these media by semi-quantitative isolation of 10 μl of a suspension at 0.5 McFarland diluted to 1/20. The media were incubated for 24 hours at 37° C., then the colonies formed were examined visually under UV illumination at 360-365 nm.
# [2] = tested on: S. aureus (including MRSA) 10 strains; assay: Detection of various strains of S. aureus in the presence of substrates; type: cell-based, Staphylococcus aureus; details: for No. of strains detected, S. aureus (including MRSA): 10 strains
# [3] = tested on: S. epidermidis 2 strains; assay: as above; type: cell-based
# Protocol: as §1, §2
# 18 microorganism strains derived from collections and belonging to various species of bacteria and of yeasts were inoculated onto these media by semi-quantitative isolation of 10 μl of a suspension at 0.5 McFarland diluted to 1/20. […]
# [4] = tested on: Bacillus subtilis NCTC 9372; assay: Nitroreductase detection on Columbia agar, colonies read under UV; type: cell-based; design: key: − = no fluorescence detected; +/− = weak fluorescence; + = medium fluorescence; ++ = strong fluorescence; details: 100 mg/l in Columbia agar, 24 h 37° C., UV 360-365 nm
# Protocol: as §1, §2, §3
# [5] = tested on: Staphylococcus aureus NCTC 6571; assay: as above; type: cell-based; design: key: − = no fluorescence detected; +/− = weak fluorescence; + = medium fluorescence; ++ = strong fluorescence; details: 100 mg/l in Columbia agar, 24 h 37° C., UV 360-365 nm
# Protocol: as §1, §2, §3
# [6] = tested on: Serratia marcescens NCTC 10211; assay: as above; type: cell-based; design: key: − = no fluorescence detected; +/− = weak fluorescence; + = medium fluorescence; ++ = strong fluorescence; details: 100 mg/l in Columbia agar, 24 h 37° C., UV 360-365 nm
# Protocol: as §1, §2, §3
# [7] = tested on: Escherichia coli NCTC 10418; assay: as above; type: cell-based; design: key: − = no fluorescence detected; +/− = weak fluorescence; + = medium fluorescence; ++ = strong fluorescence; details: 100 mg/l in Columbia agar, 24 h 37° C., UV 360-365 nm
# Protocol: as §1, §2, §3
# [8] = tested on: Enterobacter cloacae NCTC 11936; assay: as above; type: cell-based; design: key: − = no fluorescence detected; +/− = weak fluorescence; + = medium fluorescence; ++ = strong fluorescence; details: 100 mg/l in Columbia agar, 24 h 37° C., UV 360-365 nm
# Protocol: as §1, §2, §3
# [9] = tested on: Staphylococcus epidermidis NCTC 11047; assay: as above; type: cell-based; design: key: − = no fluorescence detected; +/− = weak fluorescence; + = medium fluorescence; ++ = strong fluorescence; details: 100 mg/l in Columbia agar, 24 h 37° C., UV 360-365 nm
# Protocol: as §1, §2, §3
# [10] = tested on: Candida albicans ATCC 90028; assay: as above; type: cell-based; design: key: − = no fluorescence detected; +/− = weak fluorescence; + = medium fluorescence; ++ = strong fluorescence; details: 100 mg/l in Columbia agar, 24 h 37° C., UV 360-365 nm
# Protocol: as §1, §2, §3
# [11] = tested on: Streptococcus pyogenes NCTC 8306; assay: as above; type: cell-based; design: key: − = no fluorescence detected; +/− = weak fluorescence; + = medium fluorescence; ++ = strong fluorescence; details: 100 mg/l in Columbia agar, 24 h 37° C., UV 360-365 nm
# Protocol: as §1, §2, §3
# [12] = tested on: Listeria monocytogenes NCTC 11994; assay: as above; type: cell-based; design: key: − = no fluorescence detected; +/− = weak fluorescence; + = medium fluorescence; ++ = strong fluorescence; details: 100 mg/l in Columbia agar, 24 h 37° C., UV 360-365 nm
# Protocol: as §1, §2, §3
# [13] = tested on: Pseudomonas aeruginosa NCTC 10662; assay: as above; type: cell-based; design: key: − = no fluorescence detected; +/− = weak fluorescence; + = medium fluorescence; ++ = strong fluorescence; details: 100 mg/l in Columbia agar, 24 h 37° C., UV 360-365 nm
# Protocol: as §1, §2, §3
# [14] = tested on: Yersinia enterocolitica NCTC 11176; assay: as above; type: cell-based; design: key: − = no fluorescence detected; +/− = weak fluorescence; + = medium fluorescence; ++ = strong fluorescence; details: 100 mg/l in Columbia agar, 24 h 37° C., UV 360-365 nm
# Protocol: as §1, §2, §3
# [15] = tested on: Enterococcus faecalis NCTC 775; assay: as above; type: cell-based; design: key: − = no fluorescence detected; +/− = weak fluorescence; + = medium fluorescence; ++ = strong fluorescence; details: 100 mg/l in Columbia agar, 24 h 37° C., UV 360-365 nm
# Protocol: as §1, §2, §3
# [16] = tested on: Morganella morganii 462403 (wild); assay: as above; type: cell-based; design: key to Intensity of fluorescence, Morganella morganii 462403 / F: fluorescence (intensity), Morganella morganii 462403 (wild) / Intensity of the fluorescence, Morganella morganii 462403 (wild): − = no fluorescence detected; +/− = weak fluorescence; + = medium fluorescence; ++ = strong fluorescence; details: for Intensity of fluorescence, Morganella morganii 462403: 100 mg/l in Columbia agar, 24 h 37° C., UV 360-365 nm
# Protocol: as §1, §2, §3
# [17] = tested on: Enterococcus 6 strains; assay: Detection of various strains of S. aureus in the presence of substrates; type: cell-based
# [18] = tested on: Staph spp 12 strains; assay: as above; type: cell-based
# [19] = tested on: MRSA NCTC 11939; assay: Nitroreductase detection on Columbia agar, colonies read under UV; type: cell-based, Staphylococcus aureus; design: key: − = no fluorescence detected; +/− = weak fluorescence; + = medium fluorescence; ++ = strong fluorescence; details: 100 mg/l in Columbia agar, 24 h 37° C., UV 360-365 nm
# Protocol: as §1, §2, §3
# [20] = tested on: Acinetobacter baumanii ATCC 19606; assay: as above; type: cell-based; design: key to Intensity of fluorescence, Acinetobacter baumanii ATCC 19606 / Intensity of the fluorescence, Acinetobacter baumanii ATCC 19606: − = no fluorescence detected; +/− = weak fluorescence; + = medium fluorescence; ++ = strong fluorescence; details: 100 mg/l in Columbia agar, 24 h 37° C., UV 360-365 nm
# Protocol: as §1, §2, §3
# [21] = tested on: Salmonella typhimurium NCTC 74; assay: as above; type: cell-based; design: key to Intensity of fluorescence, Salmonella typhimurium NCTC 74 / F: fluorescence (intensity), Salmonella typhimurium NCTC 74 / Intensity of the fluorescence, Salmonella typhimurium NCTC 74: − = no fluorescence detected; +/− = weak fluorescence; + = medium fluorescence; ++ = strong fluorescence; details: for Intensity of fluorescence, Salmonella typhimurium NCTC 74: 100 mg/l in Columbia agar, 24 h 37° C., UV 360-365 nm; for Salmonella typhimurium result with the substrate: table 2
# Protocol: as §1, §2, §3
Structure (SMILES),"Intensity of fluorescence, Candida glabrata NCPF3943 [1]","Distinguishing or identifying Staphylococcus aureus strains, in particular MRSA, from most of the other Gram-positive bacterial strains [2]","No. of strains detected, S. aureus (including MRSA) ([2]; 24 h)","No. of strains detected, S. aureus (including MRSA) ([2]; 48 h)","No. of strains detected, S. epidermidis ([3]; 24 h)","No. of strains detected, S. epidermidis ([3]; 48 h)","Intensity of fluorescence, Bacillus subtilis NCTC 9372 [4]","Intensity of fluorescence, Staphylococcus aureus NCTC 6571 [5]","Intensity of fluorescence, Serratia marcescens NCTC 10211 [6]","Intensity of fluorescence, Escherichia coli NCTC 10418 [7]","Intensity of fluorescence, Enterobacter cloacae NCTC 11936 [8]","Intensity of fluorescence, Staphylococcus epidermidis NCTC 11047 [9]","Intensity of fluorescence, Candida albicans ATCC 90028 [10]","Intensity of fluorescence, Streptococcus pyogenes NCTC 8306 [11]","Intensity of fluorescence, Listeria monocytogenes NCTC 11994 [12]","Intensity of fluorescence, Pseudomonas aeruginosa NCTC 10662 [13]","No. of strains detected, Enterococcus ([17]; 24 h)","No. of strains detected, Enterococcus ([17]; 48 h)","No. of strains detected, Staph spp ([18]; 24 h)","No. of strains detected, Staph spp ([18]; 48 h)",further results
COc1cc(-c2nc3ccccc3o2)c([N+](=O)[O-])cc1OC [Substrate 6],−,make it possible to distinguish or identify the Staphylococcus aureus strains,10,10,0,2,−,+,+,+,+,−,−,−,−,−,0,1,12,12,"Intensity of fluorescence, Yersinia enterocolitica NCTC 11176 [14]: −; Intensity of fluorescence, Enterococcus faecalis NCTC 775 [15]: −; Intensity of fluorescence, Morganella morganii 462403 [16]: +/−; Intensity of fluorescence, Staphylococcus aureus NCTC 11939 [19]: +; Intensity of fluorescence, Acinetobacter baumanii ATCC 19606 [20]: −; Intensity of fluorescence, Salmonella typhimurium NCTC 74 [21]: −; Salmonella typhimurium result with the substrate [21]: negative"
CN1CCN(c2ccc([N+](=O)[O-])c(-c3nc4ccccc4o3)c2)CC1 [Substrate 8],,make it possible to distinguish or identify the Staphylococcus aureus strains,10,10,0,2,,,,,,,,,,,0,1,12,12,
O=[N+]([O-])c1ccccc1-c1nc2ccccc2n1CCc1ccccc1 [Substrate 12],−,,,,,,−,−,−,−,−,−,−,−,−,−,,,,,"Intensity of fluorescence, Yersinia enterocolitica NCTC 11176 [14]: −; Intensity of fluorescence, Enterococcus faecalis NCTC 775 [15]: −; Intensity of fluorescence, Morganella morganii 462403 [16]: +/−; Specificity of the substrate ([16]; table 2): specific for Morganella morganii; Intensity of fluorescence, Staphylococcus aureus NCTC 11939 [19]: −; Intensity of fluorescence, Acinetobacter baumanii ATCC 19606 [20]: −; Intensity of fluorescence, Salmonella typhimurium NCTC 74 [21]: −; Salmonella typhimurium result with the substrate [21]: negative"
O=[N+]([O-])c1ccc(Cl)cc1-c1nc2ccccc2s1 [Substrate 21],,make it possible to distinguish or identify the Staphylococcus aureus strains,10,10,0,2,,,,,,,,,,,0,1,12,12,
